# From ChEMBL document CHEMBL1201862, “PubChem BioAssay data set” (2004)
#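 Each compound was tested at five concentrations against cells in 96-well plates for 48 hours. The concentration for 50% growth inhibition is given as GI50.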 Active and inactive are the calls of the source. Rule as the data show it: active = GI50 up to about 1.1 µM and inactive = higher.
# Experiments:
# Assay in all cases: inhibition of tumour cell growth, NCI panel, 48 h
# 786-0 = system: 786-0
# A498 = system: A498
# A549 = system: A549
# ACHN = system: ACHN
# CAKI-1 = system: CAKI-1
# COLO 205 = system: COLO 205
# DLD-1 = system: DLD-1
# DMS-114 = system: DMS-114
# DMS-273 = system: DMS-273
# EKVX = system: EKVX
# HCC 2998 = system: HCC 2998
# HCT-116 = system: HCT-116
# HCT-15 = system: HCT-15
# HOP-18 = system: HOP-18
# HOP-62 = system: HOP-62
# HT-29 = system: HT-29
# IGROV-1 = system: IGROV-1
# K562 = system: K562
# KM-20L2 = system: KM-20L2
# KM12 = system: KM12
# LOX IMVI = system: LOX IMVI
# LXFL 529 = system: LXFL 529
# M14 = system: M14
# M19-MEL = system: M19-MEL
# MOLT-4 = system: MOLT-4
# Malme-3M = system: Malme-3M
# NCI-H226 = system: NCI-H226
# NCI-H23 = system: NCI-H23
# NCI-H460 = system: NCI-H460
# NCI-H522 = system: NCI-H522
# OVCAR-3 = system: OVCAR-3
# OVCAR-4 = system: OVCAR-4
# OVCAR-5 = system: OVCAR-5
# OVCAR-8 = system: OVCAR-8
# RPMI-8226 = system: RPMI-8226
# RXF 393 = system: RXF 393
# SF-268 = system: SF-268
# SF-295 = system: SF-295
# SF-539 = system: SF-539
# SK-MEL-28 = system: SK-MEL-28
# SK-MEL-2 = system: SK-MEL-2
# SK-MEL-5 = system: SK-MEL-5
# SN12C = system: SN12C
# SNB-19 = system: SNB-19
# SNB-75 = system: SNB-75
# SNB-78 = system: SNB-78
# SR = system: SR
# SW-620 = system: SW-620
# TK-10 = system: TK-10
# U-251 = system: U-251
# UACC-257 = system: UACC-257
# UACC-62 = system: UACC-62
# UO-31 = system: UO-31
# XF498 = system: XF498
compound,measurement,setting,value
O=C(c1ccccc1)[C@H]1Nc2ccc(Cl)cc2[C@H]2c3ccccc3O[C@H]21,GI50,786-0,16.6 µM (inactive)
same,GI50,A498,12.1 µM (inactive)
same,GI50,A549,14.6 µM (inactive)
same,GI50,ACHN,15.2 µM (inactive)
same,GI50,CAKI-1,14 µM (inactive)
same,GI50,COLO 205,18.7 µM (inactive)
same,GI50,DLD-1,14 µM (inactive)
same,GI50,DMS-114,15.8 µM (inactive)
same,GI50,DMS-273,18.7 µM (inactive)
same,GI50,EKVX,15.2 µM (inactive)
same,GI50,HCC 2998,16.8 µM (inactive)
same,GI50,HCT-116,17.2 µM (inactive)
same,GI50,HCT-15,14.4 µM
same,GI50,HOP-18,11.7 µM (inactive)
same,GI50,HOP-62,18.1 µM (inactive)
same,GI50,HT-29,12.7 µM (inactive)
same,GI50,IGROV-1,17.7 µM (inactive)
same,GI50,K562,14.5 µM (inactive)
same,GI50,KM-20L2,14.9 µM (inactive)
same,GI50,KM12,16.1 µM (inactive)
same,GI50,LOX IMVI,20.7 µM (inactive)
same,GI50,LXFL 529,15 µM (inactive)
same,GI50,M14,16.3 µM (inactive)
same,GI50,M19-MEL,19.1 µM (inactive)
same,GI50,MOLT-4,4.82 µM (inactive)
same,GI50,Malme-3M,15.8 µM (inactive)
same,GI50,NCI-H226,> 10 µM (inactive)
same,GI50,NCI-H23,14.2 µM (inactive)
same,GI50,NCI-H460,16.5 µM (inactive)
same,GI50,NCI-H522,17.8 µM (inactive)
same,GI50,OVCAR-3,13.1 µM (inactive)
same,GI50,OVCAR-4,18.2 µM (inactive)
same,GI50,OVCAR-5,16 µM (inactive)
same,GI50,OVCAR-8,16.4 µM (inactive)
same,GI50,RPMI-8226,27 µM (inactive)
same,GI50,RXF 393,10.1 µM (inactive)
same,GI50,SF-268,18.1 µM (inactive)
same,GI50,SF-295,15.5 µM (inactive)
same,GI50,SF-539,15 µM (inactive)
same,GI50,SK-MEL-28,12.3 µM (inactive)
same,GI50,SK-MEL-2,13.5 µM (inactive)
same,GI50,SK-MEL-5,13.2 µM (inactive)
same,GI50,SN12C,14.1 µM (inactive)
same,GI50,SNB-19,15.7 µM (inactive)
same,GI50,SNB-75,12.4 µM (inactive)
same,GI50,SNB-78,14.9 µM (inactive)
same,GI50,SR,16.5 µM (inactive)
same,GI50,SW-620,16.5 µM (inactive)
same,GI50,TK-10,16.7 µM (inactive)
same,GI50,U-251,15.6 µM (inactive)
same,GI50,UACC-257,2.45 µM (inactive)
same,GI50,UACC-62,13.6 µM (inactive)
same,GI50,UO-31,5.27 µM (inactive)
same,GI50,XF498,14.7 µM (inactive)
